From patent publication US5929079A, “Trans cyclopentanyl azaadenyl analogs useful as immunosuppressants” (Hoechst Marion Roussel, Inc., priority 1997, dated 1999)
Structures can show the parent of a compound that is named as a salt.

How the values were obtained:
[1] = system: macrophage antigen presentation to Lewis (LEW/N) rat T-cell hybridoma (Interleukin-2 production); assay: Regulation of antigen presentation to rat T-cell hybridoma (Interleukin-2 production); format: cell-based
Experimental: Using the method of Ku (Cellular Immunology 130,(1990)), and a Lewis (LEW/N) rat T-cell hybridoma reactive with the protein methylated bovine serum albumin (mBSA), the ability of a compound of formula (1) to regulate M.phi. antigen presentation in vitro may be measured. Peritoneal macrophages obtained from LEW/N rats are plated into tissue culture and treated with 100 ug of mBSA and drug. A control is prepared similarly. After a period of 18 hours the cells are washed and incubated with the T-cell hybridoma for an additional 12 hours. Supernatants from these cultures are obtained and measured for content of Interleukin-2, a T-cell derived lymphokine which is roduced by activated T-cells. […] Rat macrophage antigen presentation and the subsequent production of Interleukin-2 are inhibited when rug is administered over a concentration range from 0.1 to 100 uM as illustrated in the following table.

[2] = system: endotoxin lethality in CF1 mice; assay: Mouse endotoxin lethality model (D-galactosamine/LPS septic shock); format: in vivo; details: 100 mg/kg i.p., pretreated at t=-1 hr; death observed over 8-72 hours
Experimental: Using the method of Silverstein, (J. Exp. Med. 173, 357 (1991)) a mouse endotoxin lethality model may be used to determine if a compound of formula (1) has the ability to inhibit endotoxin-induced septic shock which is dependent on the production of Tumor Necrosis Factor-a (TNF-α). CF1 mice pretreated at time (t)=-1 hr with drug are challenged with 18 mg of D-glactoseamine and 50 ng of LPS, then observed for death over an 8-72 hour period.

**Q.** Which “Rat macrophage antigen presentation and subsequent production of Interleukin-2” value ([1]; 0.1 to 100 uM) does the source give for `Nc1ncnc2c1ncn2[C@@H]1CC[C@@H](O)C1` [(1R,3R)-TRANS-1(9-ADENYL)CYCLOPENTAN-3-OL HYDROCHLORIDE] here?
**A.** inhibited

**Q.** What about the T-cell activation ([1]; in vitro) of the same compound?
**A.** inhibits T-cell ctivation

**Q.** What about the “protection against endotoxin lethality” value [2] of the same compound?
**A.** protects against endotoxin lethality
